# Patent publication US11109593B2, “Isoxazolin-5-one derivative and herbicide containing same as active ingredient” (HOKKO CHEMICAL INDUSTRY CO., LTD., priority 2017, dated 2021)
# Experiments:
# Assay type in all cases: in vivo
# Echinochloa crus-galli [1] = experiment: Test Example 1: herbicidal effect test by treatment of rice paddy soil (immediately after seeding); conditions: 120 g/10a active ingredient, dry weight vs untreated area, 14 days after treatment
# Outline: (§1)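 Applied at 120 g a.i./10 ares as diluted emulsion dropped into flooded (~3 cm) paddy soil pots right after sowing seeds 0–1 cm deep; greenhouse, two replicates. At day 14, dry weight of treated versus untreated plants gives % herbicidal rate.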
# Scirpus juncoides [2] = experiment: as above; conditions: 120 g/10a active ingredient, dry weight vs untreated area, 14 days after treatment
# Outline: as §1
# [3] = test system: broad leaf weeds (Lindernia pyxidaria and Monochoria vaginalis); experiment: as above; conditions: 120 g/10a active ingredient, dry weight vs untreated area, 14 days after treatment
# Outline: as §1
# Echinochloa crus-galli [4] = experiment: Test Example 3: herbicidal effect test by treatment of dry field farming soil (one day after seeding); conditions: 120 g/10a active ingredient, evaluated 14 days after treatment
# Outline: (§2)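 Seeds (20 each) mixed into top 1 cm of alluvium in pots, surface pressed. One day later, diluted emulsion sprayed onto soil, 100 L/10 a, 120 g a.i./10 a. Dry weight at 14 d vs untreated gave % herbicidal rate; n=2.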
# Amaranthus viridis [5] = experiment: as above; conditions: 120 g/10a active ingredient, evaluated 14 days after treatment
# Outline: as §2
# southern crabgrass [6] = experiment: as above; conditions: 120 g/10a active ingredient, evaluated 14 days after treatment
# Outline: as §2
# Chenopodium album [7] = experiment: as above; conditions: 120 g/10a active ingredient, evaluated 14 days after treatment
# Outline: as §2
# Echinochloa crus-galli [8] = experiment: Test Example 2: herbicidal effect test by treatment during growing period in paddy rice cultivation (seven days after seeding); conditions: 120 g/10a active ingredient, assessed 14 days after treatment, dry weight vs untreated area
# Outline: (§3)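 Herbicidal rate = (1 − treated/untreated mean dry weight) × 100, scored 14 days after application, two replicates per rate. Treatment: diluted emulsion dropped onto paddy water seven days after sowing, 120 g active ingredient per 10 ares, in a glass greenhouse.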
# Scirpus juncoides [9] = experiment: as above; conditions: 120 g/10a active ingredient, assessed 14 days after treatment, dry weight vs untreated area
# Outline: as §3
# [10] = test system: broad leaf weeds (Lindernia pyxidaria and Monochoria vaginalis); experiment: as above; conditions: 120 g/10a active ingredient, assessed 14 days after treatment, dry weight vs untreated area
# Outline: as §3
# Echinochloa crus-galli [11] = experiment: Test Example 4: herbicidal effect test by treatment of leave and stem in dry field farming (seven days after seeding); conditions: 120 g/10a active ingredient; emulsion sprayed seven days after seeding; evaluated 14 days after treatment
# Outline: (§4)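 Twenty seeds per species were mixed into the top 1 cm of alluvial soil in 36 cm^2 pots; emulsions were sprayed seven days after seeding at 100 L per 10 ares (120 g active ingredient per 10 ares). Herbicidal rate (%) = {1 − treated/untreated mean dry weight} × 100, 14 days after treatment, duplicate.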
# Amaranthus viridis [12] = experiment: as above; conditions: 120 g/10a active ingredient; emulsion sprayed seven days after seeding; evaluated 14 days after treatment
# Outline: as §4
# southern crabgrass [13] = experiment: as above; conditions: 120 g/10a active ingredient; emulsion sprayed seven days after seeding; evaluated 14 days after treatment
# Outline: as §4
# Chenopodium album [14] = experiment: as above; conditions: 120 g/10a active ingredient; emulsion sprayed seven days after seeding; evaluated 14 days after treatment
# Outline: as §4
SMILES,Herbicidal rate (%) Echinochloa crus-galli (Echinochloa crus-galli [1]),Herbicidal rate (%) Scirpus juncoides (Scirpus juncoides [2]),Herbicidal rate (%) Lindernia pyxidaria [3],Herbicidal rate (%) Monochoria vaginalis [3],"herbicidal rate, Echinochloa crus-galli (Echinochloa crus-galli [4])","herbicidal rate, Amaranthus viridis (Amaranthus viridis [5])","herbicidal rate, southern crabgrass (southern crabgrass [6])","herbicidal rate, Chenopodium album (Chenopodium album [7])",Herbicidal rate (%) Echinochloa crus-galli (Echinochloa crus-galli [8]),Herbicidal rate (%) Scirpus juncoides (Scirpus juncoides [9]),Herbicidal rate (%) Lindernia pyxidaria [10],Herbicidal rate (%) Monochoria vaginalis [10],"herbicidal effect (herbicidal rate), Echinochloa crus-galli (Echinochloa crus-galli [11])","herbicidal effect (herbicidal rate), Amaranthus viridis (Amaranthus viridis [12])","herbicidal effect (herbicidal rate), southern crabgrass (southern crabgrass [13])","herbicidal effect (herbicidal rate), Chenopodium album (Chenopodium album [14])"
CCCCC(c1ccccc1)n1oc(=O)c(Cc2ccccc2NS(=O)(=O)C(F)(F)F)c1C (stereo not shown) [Compound 1-214],100%,90%,100%,90%,80%,90%,70%,90%,90%,80%,70%,80%,60%,40%,50%,50%
Cc1c(Cc2ccccc2N(S(=O)(=O)C(F)(F)F)S(=O)(=O)C(F)(F)F)c(=O)on1CCC(C)C [Compound 1-974],100%,90%,90%,80%,90%,100%,90%,100%,100%,90%,90%,90%,90%,40%,50%,40%
COCC(C)n1oc(=O)c(Cc2ccccc2N(C(=O)OC(C)C)S(=O)(=O)C(F)(F)F)c1C (stereo not shown) [Compound 1-647],90%,90%,90%,90%,90%,90%,90%,90%,90%,90%,90%,90%,90%,40%,90%,40%
CCS(=O)(=O)N(c1ccccc1Cc1c(C)n(C(C)COC)oc1=O)S(=O)(=O)C(F)(F)F (stereo not shown) [Compound 1-915],90%,90%,90%,90%,90%,90%,90%,90%,90%,90%,90%,90%,90%,40%,90%,40%
CCNC(=O)N(c1ccccc1Cc1c(C)n(C(C)c2ccccc2)oc1=O)S(=O)(=O)C(F)(F)F (stereo not shown) [Compound 1-874],90%,90%,90%,90%,90%,90%,90%,90%,90%,90%,90%,90%,90%,40%,90%,40%
CCC(=O)N(c1ccccc1Cc1c(C)n(C(C)(C)C)oc1=O)S(=O)(=O)C(F)(F)F [Compound 1-315],90%,90%,90%,90%,90%,90%,90%,90%,90%,90%,90%,90%,90%,40%,90%,40%
CCS(=O)(=O)N(c1ccccc1Cc1c(C)n(C(C)c2ccccc2)oc1=O)S(=O)(=O)C(F)(F)F (stereo not shown) [Compound 1-917],90%,90%,90%,90%,90%,90%,90%,90%,90%,90%,90%,90%,90%,40%,90%,40%
CCC(C)n1oc(=O)c(Cc2ccccc2N(C(=O)c2ccc(Cl)cc2)S(=O)(=O)C(F)(F)F)c1C (stereo not shown) [Compound 1-484],90%,90%,90%,90%,90%,90%,90%,90%,90%,90%,90%,90%,90%,40%,90%,40%
CCC(CC)n1oc(=O)c(Cc2ccccc2N(C(C)=O)S(=O)(=O)C(F)(F)F)c1C [Compound 1-295],90%,90%,90%,90%,90%,90%,90%,90%,90%,90%,90%,90%,90%,40%,90%,40%
"CCC(C)Cn1oc(=O)c(Cc2ccccc2N(C(=O)OCc2ccccc2)S(=O)(=O)C(F)(F)F)c1C (single isomer, unassigned) [1-789 (TLC bottom)]",100%,90%,90%,90%,90%,70%,60%,80%,100%,90%,60%,90%,50%,60%,50%,40%
